For data set [1], the system named is MDA-MB-231 cells. Nature of the data set: Metabolism of RES in MDA-MB-231 cells (HPLC). The note with it: for maximum metabolite formation rate: 25 μM RES; for maximum metabolite formation rate / formation of RES metabolite: 48 h; for formation of RES metabolite: RES 0–100 μM. As to the method: (§1) After 48 h, the cellular media (100 μl) were mixed with 200 μl ice-cold (-20°C) methanol and subsequently centrifuged (14000 rpm, 5 min). The clear supernatants were then diluted 1:1 with aqueous ammonium acetate buffer (5 mM, pH = 7.4), and 80 μl of the samples were injected onto the HPLC column. […] Calibration of the chromatogram was accomplished using the external standard method.
(§2) The modes of inhibition were subsequently determined from Lineweaver–Burk plots, and the corresponding Ki values were calculated from Dixon plots using GraphPad Prism 6.0.

In data set [2] the test system is MCF-7 cells. Nature of the data set: Metabolism of RES in MCF-7 cells (HPLC). The protocol:
as §1, §2

The subject of data set [3] is MDA-MB-231 cells. Nature of the data set: Cell proliferation, Casy cell counting, MDA-MB-231. The data set is classed as cell-based, human. The note with it: 0–100 nM, 48 h, hormone-deprived. As to the method: (§3) MDA-MB-231 and MCF-7 breast cancer cells were purchased from the American Type Culture Collection (ATCC; Manassas, VA, United States) and routinely cultivated at 37°C (95% humidity and 5% CO2) in phenolred-free Dulbecco’s modified Eagle medium F-12 (DMEM/F-12), fortified with 1% PenStrep®-solution and 10% fetal bovine serum (Invitrogen; Thermo Fisher Scientific, Inc., Waltham, MA, United States). All experiments were performed during the exponential growth phase of both cell lines. For the experiments, cells were seeded in 6-well-plates at a density of 1.0 × 10^6 cells per well and allowed to attach for 24 h.
(§4) Prior to cell counting with a Casy® TT Cell Counter (OLS OMNI Life Science, Bremen, Germany), the supernatant medium was removed and cells were detached using 400 μl TrypLe® solution (Invitrogen). All experiments were performed in triplicate, and the data were reported as the means ± standard deviation of all values.

Data set [4] relates to MCF-7 cells. Nature of the data set: Cell proliferation, Casy cell counting, MCF-7. The data set is classed as cell-based, human. Conditions: 48 h; for cell number: 100 nM hormone precursor. The protocol:
as §3, §4

Data set [5] has as its system MDA-MB-231 cells. Conditions: for decrease of native hormone precursor: MDA-MB-231, 100 nM. The protocol:
(§5) Briefly, cartridges were preconditioned with 2 × 1.0 ml acetonitrile and 3 × 1.0 ml ammonium acetate buffer (10 mM, pH = 5.0), and the samples were loaded onto the columns. After washing with 1 × 1.0 ml ammonium acetate buffer (10 mM, pH = 5.0) and 2 × 1.0 ml acetonitrile/ammonium acetate buffer (10 mM, pH 5.0) 10:90 (v/v), the analytes were eluted using 2 × 650 μl acetonitrile/ammonium acetate buffer (10 mM, pH = 5.0) 95:5 (v/v) and evaporated until dry. Subsequently, samples were reconstituted in 270 μl acetonitrile/ammonium acetate buffer (10 mM, pH = 5.0) 25:75 (v/v) and stored at -80°C until further LC–HRMS analysis.
(§6) After media collection, cell monolayers were washed five times with 2.0 ml DPBS, detached using 400 μl TrypLE® solution (37°C, 5 min), mixed with 600 μl DPBS and transferred into sample vials. Aliquots of these suspensions (100 μl each) were diluted and counted using the Casy® TT Cell Counter to determine the exact number of cells per sample well. The remaining cell suspensions (900 μl each) were gently centrifuged (1000 rpm, 8 min), and the supernatants were discarded. The cell pellets were subsequently resuspended in 100 μl aqueous ammonium acetate buffer (10 mM, pH = 5.0) and lysed by five freeze-thaw-cycles in liquid nitrogen (3 min each), followed by thawing at ambient temperature. Ammonium acetate buffer (1000 μl) was added, and the suspensions were centrifuged (14000 rpm, 5 min). Subsequently, the supernatants were concentrated using the same SPE protocol as described above. All processed samples were then stored at -80°C until further LC–HRMS analysis. For each condition, three biologically independent experiments were performed; the reported values represent the overall means ± SD of all values.
(§7) LC was performed with an UltiMate 3000 RSLC-series system coupled to a maXis HD ESI-Qq-TOF mass spectrometer (Bruker Corporation, Bremen, Germany). A Phenomenex Luna® 3 μm C18(2) 100 Å LC column (250 mm × 4.6 mm I.D.; Phenomenex, Inc., Torrance, CA, United States), preceded by a Hypersil® BDS-C18 guard column (5 μm, 10 mm × 4.6 mm I.D.; Thermo Fisher Scientific, Inc.) was used for the separation of the analytes at a flow rate of 1.0 ml/min and a temperature of 43°C. […] The ESI ion source settings were as follows: capillary voltage: -4.5 kV; dry gas flow rate: 8.0 l/min N2; nebulizer: 1.0 bar N2; and dry temperature: 200°C. The ion transfer parameters were set to 400 Vpp funnel RF and 300 Vpp multipole RF, the quadrupole ion energy was 8.0 eV, and the collision cell parameters were as follows: collision RF, 1100 Vpp; collision energy, 10.0 eV; transfer time, 38 μs; and pre-pulse storage, 18 μs. In the range of m/z 150–500, full-scan mass spectra were recorded.
as §2

The test system of data set [6] is MCF-7 cells. Conditions: for decrease of native hormone precursor: MCF-7, 100 nM. As to the method: as §5, §6, §7, §2
For data set [7] the following is noted: 0.5–5.0 g/day RES for up to 29 days, healthy subjects; ref Brown et al., 2010; cited from earlier work.
The test system of data set [8] is steroid metabolism in MCF-7 cells. In words: Inhibition of steroid metabolism by RES in MCF-7 cells (LC–HRMS). The protocol: as §5, §6, §7, §2
[9] abbreviates: MDA-MB-231, Michaelis–Menten model.
[10] abbreviates: MDA-MB-231, substrate inhibition model.
[11] abbreviates: MDA-MB-231, precursor DHEA or E1 0–100 nM, 48 h, Michaelis–Menten.

SMILES strings stand for the structures. Where two headings read alike, the source gives them in different places.

`O=C(O)[C@H]1O[C@@H](Oc2cc(O)cc(/C=C/c3ccc(O)cc3)c2)[C@H](O)[C@@H](O)[C@@H]1O` (relative stereo) [RES-3G, trans-resveratrol-3-O-(β-D-glucuronide)]: in the data set on MDA-MB-231 cells [1], the “maximum metabolite formation rate” value turned out to be 23.9 ± 2.4 pmol/10^6 cells/h. Further, the Vmax was determined as 32.8 ± 8.6 pmol/10^6 cells/h in the data set on MDA-MB-231 cells [1] (setting [9]); 43.4 ± 2.2 pmol/10^6 cells/h with MDA-MB-231 cells [1] (setting [10]); 422.9 ± 38.9 pmol/10^6 cells/h in the data set on MCF-7 cells [2] (MCF-7, Hill model). The “Slope (n)” value in the data set on MCF-7 cells [2] (MCF-7, Hill model) turned out to be 1.86 ± 0.18.

As to `C[C@]12CC[C@H](O)CC1=CC[C@@H]1[C@@H]2CC[C@]2(C)C(=O)CC[C@@H]12` [DHEA, dehydroepiandrosterone], the “effect of hormone precursor on cell growth” value in the data set on MDA-MB-231 cells [3] is “did not further increase cell growth”. Besides, in the data set with MCF-7 cells [4], the cell number is listed as 2.69 ± 0.24 × 10^6 cells. Also, the entries for the “decrease of native hormone precursor” value with MDA-MB-231 cells [5] (48 h) and with MCF-7 cells [6] (48 h) were 26.8% and 54.9%, respectively. Besides, the “remaining precursor concentration in the medium” value in the data set with MDA-MB-231 cells [5] (MDA-MB-231, from 100 nM, after 48 h) stood at 73.2 ± 2.5 nM; in the data set with MCF-7 cells [6] (MCF-7, from 100.0 nM, after 48 h), 45.1 ± 1.8 nM.

Turning to `C[C@]12CC[C@@H]3c4ccc(O)cc4CC[C@H]3[C@@H]1CCC2=O` [E1, estrone], the “effect of hormone precursor on cell growth” value in the data set on MDA-MB-231 cells [3] is “did not further increase cell growth”. In addition, the cell number with MCF-7 cells [4] is given as 3.85 ± 0.36 × 10^6 cells. In the data set with MCF-7 cells [4] (100 nM), the stimulation of proliferation is 59.8%. Also, the “decrease of native hormone precursor” value in the data set on MDA-MB-231 cells [5] (48 h) is 12.3%; in the data set on MCF-7 cells [6] (48 h) it was 12.9%.

With `O=S(=O)(O)Oc1cc(O)cc(/C=C/c2ccc(O)cc2)c1` [RES-3S, trans-resveratrol-3-O-sulfate], the “maximum metabolite formation rate” value in the data set with MDA-MB-231 cells [1] came out at 2.28 ± 0.33 pmol/10^6 cells/h. In addition, the Vmax with MDA-MB-231 cells [1] (setting [9]) was 3.25 ± 0.44 pmol/10^6 cells/h; in the data set with MDA-MB-231 cells [1] (setting [10]), 4.31 ± 0.97 pmol/10^6 cells/h; with MCF-7 cells [2] (MCF-7, Michaelis–Menten model) it was 468.4 ± 9.9 pmol/10^6 cells/h; in the data set with MCF-7 cells [2] (MCF-7, substrate inhibition model), 501.4 ± 17.1 pmol/10^6 cells/h. Moreover, the “fold increase of metabolite formation in MCF-7 compared with MDA-MB-231” value with MCF-7 cells [2] was 150 fold. Besides, in the data set on MCF-7 cells [2] (MCF-7, 48 h), the “mean maximum formation rate” value is listed as 340.1 ± 49.4 pmol/10^6 cells/h. Also, in the data set with MCF-7 cells [2] (RES up to 100 μM, substrate inhibition), the “reduction in metabolite formation” value is 43.2%. Moreover, in data set [7], the “levels of metabolite relative to RES” value is reported as “approximately 10 fold”.

`O=C(O)C1OC(Oc2ccc(C=Cc3cc(O)cc(O)c3)cc2)C(O)C(O)C1O` [RES-4G, trans-resveratrol-4′-O-(β-D-glucuronide)]: the “formation of RES metabolite” value with MDA-MB-231 cells [1] is “below the detection limit”; in the data set with MCF-7 cells [2] (RES 0–100 μM, 48 h), “below the detection limit”.

As to `O=S(=O)(O)Oc1ccc(/C=C/c2cc(O)cc(OS(=O)(=O)O)c2)cc1` [RES-DS, trans-resveratrol-3-O-4′-O-disulfate], the “formation of RES metabolite” value with MDA-MB-231 cells [1] is recorded as “below the detection limit”.

Usually Km stands for the concentration of substrate that gives half-maximal velocity. As to `C[C@]12CC[C@H]3[C@@H](CCC4=CC(=O)CC[C@@]43C)[C@@H]1CC[C@@H]2O` [T, testosterone], the Km amounted to 0.107 ± 0.0063 µM in data set [8] (MCF-7, 0 μM RES); 0.107 ± 0.0059 µM in data set [8] (MCF-7, 5 μM RES); 0.107 ± 0.0038 µM in data set [8] (MCF-7, 10 μM RES); 0.106 ± 0.0024 µM in data set [8] (MCF-7, 25 μM RES); 0.106 ± 0.004 µM in data set [8] (MCF-7, 50 μM RES); 0.103 ± 0.0048 µM in data set [8] (MCF-7, 100 μM RES). The Km in the data set with MDA-MB-231 cells [5] (setting [11]) stood at 0.0563 ± 0.0214 µM. The Vmax in data set [8] (MCF-7, 0 μM RES) is on record as 9.95 ± 0.42 fmol/10^6 cells/h; in data set [8] (MCF-7, 10 μM RES), 18.4 ± 0.7^∗ fmol/10^6 cells/h; in data set [8] (MCF-7, 25 μM RES), 26.7 ± 0.4^∗ fmol/10^6 cells/h; in data set [8] (MCF-7, 50 μM RES) it was 35.9 ± 0.8^∗ fmol/10^6 cells/h; in data set [8] (MCF-7, 100 μM RES) it was 39.7 ± 1.1^∗ fmol/10^6 cells/h; in the data set with MDA-MB-231 cells [5] (setting [11]) it was 91.2 ± 15.9 fmol/10^6 cells/h. Further, in the data set on MCF-7 cells [6] (MCF-7, precursor DHEA or E1 0–100 nM, 48 h, Michaelis–Menten), the Vmax is recorded as 9.96 ± 1.42^∗ fmol/10^6 cells/h. Further, the “formation rate in the presence of RES” value in data set [8] (MCF-7, 100 nM DHEA + 100 μM RES, 48 h) was determined as 19.4 ± 1.6 fmol/10^6 cells/h. In addition, the mean formation rate in the data set with MDA-MB-231 cells [5] (MDA-MB-231, 100 nM DHEA, 48 h) was determined as 57.1 ± 6.2 fmol/10^6 cells/h; with MCF-7 cells [6] (MCF-7, 100 nM DHEA, 48 h), 4.78 ± 0.38 fmol/10^6 cells/h.

Values taken from paper PMC6048268, “Resveratrol Inhibits Key Steps of Steroid Metabolism in a Human Estrogen-Receptor Positive Breast Cancer Model: Impact on Cellular Proliferation” (Frontiers in Pharmacology, 2018).
